Measurements reported in patent publication US20150246067A1, “ANTIVIRAL TREATMENT OF LYMPHOMA AND CANCER” (THE REGENTS OF THE UNIVERSITY OF MICHIGAN, priority 2009, published 2015).

The compounds below were run on HERV K (HML2) (assay: Reverse transcriptase activity in supernatants of drug-treated NCCIT cells (Reverse Transcription Assay Kit)). Conditions: 7 days, increasing doses of drug, supernatant, FIGS. 4A-I.
Type: cell-based, human
Experimental: HIV antivirals were assayed to determine which antiviral agents have an antiviral effect against HERV K (HML2). The NCCIT cell line derived from a teratocarcinoma produces many HERV K (HML2) viral particles. NCCIT cells were maintained at 40% confluence in 6-well plates in RPMI medium and incubated for 7 days in the presence of increasing doses of nucleoside or non-nucleoside reverse transcriptase inhibitors or HIV protease inhibitors. Drugs, provided as lyophilized powders by the AIDS Research and Reference Reagent Program, were resuspended to a final concentration of 10 mg/mL (except for PFA: 60 mg/mL) in different solvents as recommended (SEE table 1). Cells were incubated for 7 days at increasing doses of drugs or the vehicle of solution as controls. Supernatants were collected and cell debris was removed by centrifugation at 2300 rpm for 20 min. Supernatant was assessed for Reverse Transcriptase Activity using the Reverse Transcription Assay Kit (Invitrogen) as described by the manufacturer. In addition, supernatants were treated with 20 units of DNAse (Roche) for 1 hour at 37° C. and viral RNA was extracted using the Viral RNA mini kit (Qiagen) as described by the manufacturer. The HERV-K type 2 viral load was measured by quantitative Real Time RT-PCR using primers that expand the type-2 env gene region, which is absent in type-1 viruses, Kenv type2F: 5′-[…]-3′ (SEQ ID NO. 1), and Kenv type2R: 5′-[…]-3′ (SEQ ID NO. 2). Standard curves were generated using serial dilutions of in vitro RNA transcripts as external calibrators. In a similar way, quantities of HERV—K type 2 proviruses were measured by Real Time PCR using 500 ng of isolated DNA.

| SMILES | HERV K (HML2) RT activity |
| --- | --- |
| Cc1cn([C@H]2C[C@H](N=[N+]=[N-])[C@@H](CO)O2)c(=O)[nH]c1=O [AZT, Zidovudine] | reduction |
| Nc1nc(NC2CC2)c2ncn([C@H]3C=C[C@@H](CO)C3)c2n1 [Abacavir] | reduction |
| Nc1nc(=O)n([C@@H]2CS[C@H](CO)O2)cc1F [FTC, Emtricitabine] | reduction |
| Cc1cn([C@H]2C=C[C@@H](CO)O2)c(=O)[nH]c1=O [d4T, Stavudine] | reduction |
| Nc1ccn([C@H]2CC[C@@H](CO)O2)c(=O)n1 [ddC, zalcitabine] | reduction |
| O=c1[nH]cnc2c1ncn2[C@H]1CC[C@@H](CO)O1 [ddI, Dideoxyinosine] | reduction |
| CC(C)OC(=O)OCOP(=O)(CO[C@H](C)Cn1cnc2c(N)ncnc21)OCOC(=O)OC(C)C [tenofovir disoproxil, Tenofovir disoproxyl fumarato] | reduction |
| O=c1nc(NO)ccn1[C@@H]1O[C@H](CO)[C@@H](O)[C@H]1O [β-D hydroxycytidine, β-d hydroxy cytidine] | reduction |
